Measured values: patent US9718823B2, “2, 6-Di-nitrogen-containing substituted purine derivative, and preparation method, pharmaceutical composition and use thereof” (Zhejiang Medicine Co., Ltd. Xinchang Pharmaceutical Factory, priority 2013, dated 2017)
Where a name gives a salt, the structure may show the parent alone.

Assays:
[1] = target: T1, PI3 K γ (Homo sapiens, UniProt P48736); test: Inhibitory activity to PI3K γ, PI 3-Kinase (human) HTRF Assay kit; format: biochemical; details: for Inhibition rate % to PI3 K γ: dihydrate di-methanesulfonate
T1 construct: purchased Biology, Medicilon
T1 sequence (P48736 whole entry): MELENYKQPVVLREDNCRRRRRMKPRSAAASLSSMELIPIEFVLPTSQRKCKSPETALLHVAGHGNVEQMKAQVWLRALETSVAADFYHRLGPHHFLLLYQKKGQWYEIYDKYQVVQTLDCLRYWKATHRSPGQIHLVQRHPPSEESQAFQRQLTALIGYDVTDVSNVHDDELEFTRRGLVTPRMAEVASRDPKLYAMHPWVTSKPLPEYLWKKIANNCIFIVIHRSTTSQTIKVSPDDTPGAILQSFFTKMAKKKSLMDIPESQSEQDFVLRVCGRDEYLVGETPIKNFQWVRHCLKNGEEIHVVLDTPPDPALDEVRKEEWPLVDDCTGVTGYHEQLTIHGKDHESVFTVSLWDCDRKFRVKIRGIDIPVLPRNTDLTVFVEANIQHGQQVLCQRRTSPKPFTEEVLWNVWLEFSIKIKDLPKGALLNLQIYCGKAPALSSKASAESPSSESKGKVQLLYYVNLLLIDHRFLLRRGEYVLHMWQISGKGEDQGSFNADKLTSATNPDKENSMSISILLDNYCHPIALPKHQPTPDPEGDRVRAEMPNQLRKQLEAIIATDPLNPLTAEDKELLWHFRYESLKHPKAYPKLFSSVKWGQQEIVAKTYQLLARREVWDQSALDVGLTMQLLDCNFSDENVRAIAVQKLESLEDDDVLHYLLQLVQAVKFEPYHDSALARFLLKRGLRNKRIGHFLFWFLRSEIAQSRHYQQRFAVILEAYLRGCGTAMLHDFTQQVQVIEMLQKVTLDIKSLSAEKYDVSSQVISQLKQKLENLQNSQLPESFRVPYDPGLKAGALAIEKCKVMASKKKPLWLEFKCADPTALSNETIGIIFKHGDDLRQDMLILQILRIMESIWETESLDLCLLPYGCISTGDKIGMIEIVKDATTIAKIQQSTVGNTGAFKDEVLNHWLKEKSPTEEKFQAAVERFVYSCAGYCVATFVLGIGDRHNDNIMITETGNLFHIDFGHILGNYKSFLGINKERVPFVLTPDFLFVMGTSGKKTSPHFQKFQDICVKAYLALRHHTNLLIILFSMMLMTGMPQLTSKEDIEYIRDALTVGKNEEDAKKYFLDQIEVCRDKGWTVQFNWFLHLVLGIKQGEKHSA
Outline: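 HTRF kinase assay with PI3Kγ at 80 ng/well, 10 μM PIP2 and 100 μM ATP (both final) in DTT-containing reaction buffer, 1% DMSO. Preliminary screen at 10 μM and 1 μM compound, followed by IC50 determination for selected compounds.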

[2] = system: PC-3 cell Akt (Ser473) phosphorylation; test: Inhibition of phosphorylation level of PC-3 cell Akt (Ser473), Cisbio HTRF phospho Akt (Ser473) cell-based assay; parameters: species or system human; details: hEGF 100 ng/ml stimulation, 1st and 2nd test where printed
Procedure: The inhibitory activity of the compounds of present invention to the phosphorylation level of PC-3 cell Akt (Ser473) is studied by using Cisbio HTRF phospho Akt (Ser473) cell-based assay test kit.
Cell strain: PC-3 prostate cancer cells line (cell bank of Chinese Academy of Sciences) is cultured by using culture medium (F12K+10% FBS).
hEGF is prepared as stock solution of 100 ug/ml with 10 mM acetic acid, and the stock solution is diluted to 200 ng/ml with serum-free medium, added 50 ul to each well to be stimulated.
b) Preparation of Complete Lysate • 4×Lysis Buffer is diluted 4 times with ddH2O to prepare 1×Lysis Buffer. • 100×Blocking Reagent is diluted 100 times with 1×Lysis Buffer.
c) Preparation of Detection Liquid • 20×Anti-Phospho-Akt is diluted 20 times with Detection Buffer. • 20×Anti-Akt is diluted 20 times with Detection Buffer.
The compounds are diluted with DMSO, and the working concentration of compounds is 100 times of detection concentration.
Cells in logarithmic growth phase are collected, counted, and resuspended with complete culture medium;
The cell concentration is adjusted to appropriate concentration, and cell suspension is inoculated into 96 well plates at 50 μl per well;
Cells are incubated for more than 4 h in the 5% CO2 incubator at temperature of 37° C., relative humidity of 100%;
Cell plate is removed from the incubator. The cell suspension is aspirated gently, and 50 ul serum-free F12K medium is quickly added, then the cell plate is placed into the incubator to culture overnight.
The compounds are diluted in a linear gradient with DMSO.
0.5 ul compounds is added into the test well, mixed on oscillators, and incubated at room temperature for 2 hours.
Proportioned hEGF solution is added to test well at 50 μl per well, and the final concentration is 100 ng/ml. serum-free medium is added into The negative control well at 50 μl per well.
The solution is mixed on oscillator and incubated at room temperature for 2 hours.
The liquid in 96 well plates is aspirated by multichannel pipette or the supernatant is discarded gently. The proportioned complete lysate is added quickly at 50 μl per well.
The solution is mixed on oscillator and lysed at room temperature for 30 min.
16 μl cell lysate is transferred from the 96 well plates to white low volume 384 well plates, and the proportioned two pairs of detection antibody are added. The solution is mixed on oscillator, and incubated at room temperature for 4 hours to detect the readings.

[3] = system: PC-3 human prostate cancer cell strain; test: Antitumor cell proliferation in vitro, CCK-8 detection kit, PC-3; format: cell-based; details: Homo sapiens, PC-3, 72 h, PC-3 cells, 1st and 2nd test where printed
Procedure: The half inhibitory concentration IC50 of proliferation of three kinds of tumor cell strain (U87MG, PC-3, BT474) for 12 candidate compounds of the present invention is detected by CCK-8 detection kits.
PC-3 human prostate cancer cell strain (cell bank of Chinese Academy of Sciences)
The studied compounds are dissolved by DMSO to make the final concentration 10 mM.
• a) Collecting the cells in logarithmic phase, counting, and resuspending the cells with complete medium. • b) Adjusting the concentration of cells to a suitable concentration, inoculating in 96 well plates, each well is inoculated to 100 μl cell suspension.
c) incubating cells for 24 hours in a 5% CO2 incubator at temperature of 37° C., under the condition of 100% relative humidity.
a) The cells in logarithmic phase is collected, counted, resuspended with complete medium. The concentration of cells is adjusted to a suitable concentration (determined in accordance with the optimizable test results of cell density), and the cells is inoculated in 96 well plates, wherein each well is inoculated 100 μl cell suspension, Cells are incubated for 24 hours in 5% CO2 incubator at temperature of 37° C. under the condition of 100% relative humidity.
b) The test compounds are diluted to 500 μM with culture medium, then diluted in series eight times. […] as 25 μl/well. The final concentrations of the compounds are diluted from 100 μM to 0 μM, with 4 times dilution, and there are a total of 10 concentration points.
c) Cells are incubated for 72 hours in 5% CO2 incubator at temperature of 37° C. under the condition of 100% relative humidity.
d) The culture medium is aspirated and discarded, and complete medium containing 10% CCK-8 is incubated in a incubator at 37° C. for 2˜4 hours.
e) After shocking gently, the absorbance of the culture medium is measured at 450 nm wavelength on SpectraMax M5 Microplate Reader, with the absorbance at 650 nm as reference, to calculate the inhibition rate.

SMILES | Inhibition rate % to PI3 K γ ([1]; 1 μM) [%] | Inhibition rate % to PI3 K γ ([1]; 10 μM) [%] | IC50 ([2]; PC-3 cells, dihydrate di-methanesulfonate) [nM] | IC50 [3] [µM] | inhibition at 1 µM ([1]; 1 μM, read-out: Inhibition rate % to PI3 K γ) [%] | inhibition at 10 µM ([1]; 10 μM, read-out: Inhibition rate % to PI3 K γ) [%] | IC50 ([2]; Homo sapiens, PC-3, PC-3 cells) [nM]
c1ccc(-c2ccnc3ccc(Nc4nc(NC5CC5)c5nc[nH]c5n4)cc23)cc1 [MED1007-91, N6-cyclopropyl-N2-(4-phenylquinoline-6-yl)-9H-purine-2,6-diammonium salt dihydrate di-methanesulfonate] | 29.82 | 81.29 | 74 | 0.654 |  |  | 
COC[C@H]1OC(=O)c2coc3c2[C@@]1(C)C1=C(C3=O)[C@@H]2CCC(=O)[C@@]2(C)C[C@H]1OC(C)=O [Wortmannin, reference compound] |  |  |  | 21.6 | 105 | 101 | 7.41
